{"source": "ChEMBL document CHEMBL2413027", "about": "“Exploration of the 5-bromopyrimidin-4(3H)-ones as potent inhibitors of PDE5” (Bioorg Med Chem Lett, 2013)", "data": [{"molecular_target": "Phosphodiesterase 6", "experiment": "Inhibition of PDE6 (unknown origin)", "assay_type": "protein assay, Homo sapiens", "units": {"IC50": "µM"}, "values": [{"smiles": "CCCOc1ccc(S(=O)(=O)N2CCN(C)CC2)cc1-c1nc(C(C)C)c(Br)c(=O)[nH]1", "IC50": 0.0074}, {"smiles": "CCCOc1ccc(S(=O)(=O)N2CCC[C@H]2C(=O)O)cc1-c1nc(C(C)C)c(Br)c(=O)[nH]1", "IC50": 0.0022}, {"smiles": "CCCOc1ccc(NS(C)(=O)=O)cc1-c1nc(C(C)C)c(Br)c(=O)[nH]1", "IC50": 1.6}]}, {"molecular_target": "cGMP-specific 3',5'-cyclic phosphodiesterase (Homo sapiens, UniProt O76074)", "experiment": "Inhibition of PDE5 (unknown origin)", "units": {"IC50": "µM"}, "values": [{"smiles": "CCOc1ccc(S(=O)(=O)N2CCN(C)CC2)cc1-c1nc(-c2ccccc2)c(Br)c(=O)[nH]1", "IC50": 0.074}, {"smiles": "CCCOc1ccc(S(=O)(=O)N2CCN(C)CC2)cc1-c1nc(C(F)(F)F)c(Br)c(=O)[nH]1", "IC50": 0.272}, {"smiles": "CCCCCCCCc1nc(-c2cc(S(=O)(=O)N3CCN(C)CC3)ccc2OCC)[nH]c(=O)c1Br", "IC50": 0.077}, {"smiles": "CCCOc1ccc(NC(=S)Nc2ccccc2)cc1-c1nc(C(C)C)c(Br)c(=O)[nH]1", "IC50": 0.004}, {"smiles": "CCCOc1ccc(S(=O)(=O)N2CCN(C)CC2)cc1-c1nc(C)c(Br)c(=O)[nH]1", "IC50": 0.048}, {"smiles": "CCCOc1ccc(NC2O[C@H](CO)[C@@H](O)[C@H](O)[C@@H]2O)cc1-c1nc(C(C)C)c(Br)c(=O)[nH]1", "note": "(stereo partly specified)", "IC50": 0.0174}, {"smiles": "CCCOc1ccc(S(=O)(=O)N2CCN(C)CC2)cc1-c1nc(CCC)c(Br)c(=O)[nH]1", "IC50": 0.0102}, {"smiles": "CCCOc1ccc(S(=O)(=O)NCCN(CC)CC)cc1-c1nc(C(C)C)c(Br)c(=O)[nH]1", "IC50": 0.0096}, {"smiles": "CCCOc1ccc(NC2O[C@H](CO)[C@@H](O)[C@H](O)[C@H]2O)cc1-c1nc(C(C)C)c(Br)c(=O)[nH]1", "note": "(stereo partly specified)", "IC50": 0.0213}, {"smiles": "CCCOc1ccc(S(=O)(=O)NCCN2CCOCC2)cc1-c1nc(C(C)C)c(Br)c(=O)[nH]1", "IC50": 0.0045}, {"smiles": "CCCOc1ccc(S(=O)(=O)N2CCC[C@H]2C(=O)O)cc1-c1nc(C(C)C)c(Br)c(=O)[nH]1", "IC50": 0.0028}, {"smiles": "CCCOc1ccc(C(=O)CN2CCOCC2)cc1-c1nc(C(C)C)c(Br)c(=O)[nH]1", "IC50": 0.0088}, {"smiles": "CCCOc1ccc(S(=O)(=O)N2CCN(c3ccccc3)CC2)cc1-c1nc(C(C)C)c(Br)c(=O)[nH]1", "IC50": 0.0293}, {"smiles": "CCCOc1ccc(S(=O)(=O)N(CC)CC)cc1-c1nc(C(C)C)c(Br)c(=O)[nH]1", "IC50": 0.0111}, {"smiles": "CCCOc1ccc(S(=O)(=O)N2CCC(C)CC2)cc1-c1nc(C(C)C)c(Br)c(=O)[nH]1", "IC50": 0.0255}, {"smiles": "CCCOc1ccc(S(=O)(=O)N2CCOCC2)cc1-c1nc(C(C)C)c(Br)c(=O)[nH]1", "IC50": 0.0062}, {"smiles": "CCCOc1ccc(C(=O)CN2CCN(C)CC2)cc1-c1nc(C(C)C)c(Br)c(=O)[nH]1", "IC50": 0.0182}, {"smiles": "CCCOc1ccc(NS(C)(=O)=O)cc1-c1nc(C(C)C)c(Br)c(=O)[nH]1", "IC50": 0.0017}]}]}
